Measured values: article PMC9964268, “A Novel, Highly Potent NADPH-Dependent Cytochrome P450 Reductase from Waste Liza klunzingeri Liver” (Marine Drugs, 2023)

System: T1, LkCPR; NADPH-dependent cytochrome P450 reductase from Liza klunzingeri liver
T1 construct: gene POR; native, purified from liver microsomes (detergent-solubilised; DEAE-Sepharose twice, 2',5'-ADP Sepharose 4B); about 75 kDa, monomer
Assay: cytochrome c reduction at […] nm, Michaelis-Menten fit
Assay type: biochemical, Planiliza klunzingeri
Conditions: co-substrate cytochrome c at saturation (50 µM); potassium phosphate pH 7.5; room temperature; apparent Km

Km: 7.26 ± 0.2 µM
Structure (SMILES): NC(=O)C1=CN([C@@H]2O[C@H](COP(=O)(O)OP(=O)(O)OC[C@H]3O[C@@H](n4cnc5c(N)ncnc54)[C@H](OP(=O)(O)O)[C@@H]3O)[C@@H](O)[C@H]2O)C=CC1 [NADPH]
